# Values of other authors, collected in article PMC8554823 (ACS Central Science, 2021).
# Biological target: human granzyme B (Homo sapiens, UniProt P10144)
# Conditions: previously reported value for IEPD alone
# human granzyme B, sequence (P10144 21-247): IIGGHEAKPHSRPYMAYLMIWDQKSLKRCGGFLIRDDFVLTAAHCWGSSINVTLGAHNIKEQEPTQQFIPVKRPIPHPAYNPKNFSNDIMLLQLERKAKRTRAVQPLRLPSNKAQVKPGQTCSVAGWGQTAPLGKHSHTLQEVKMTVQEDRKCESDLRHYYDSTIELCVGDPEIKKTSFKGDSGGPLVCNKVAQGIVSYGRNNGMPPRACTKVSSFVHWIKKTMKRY
substance,measurement,value
IEPD,catalytic efficiency (kcat/Km),~3300 M^–1 s^–1
